Laboratory results taken from paper PMC5666424, “Marine-Derived 2-Aminoimidazolone Alkaloids. Leucettamine B-Related Polyandrocarpamines Inhibit Mammalian and Protozoan DYRK & CLK Kinases” (Marine Drugs, 2017).

Key:
Assay in all cases: KinomeScan
Format in all cases: binding
Conditions in all cases: 1 μM
ARK5 = target: T1, ARK5 (Homo sapiens, UniProt O60285)
T1 construct: purchased DiscoverX (KINOMEscan)
Protocol: (§1) Assays were performed essentially as described previously. For most assays, kinase-tagged T7 phage strains were grown in parallel in 24-well blocks in an E. coli host derived from the BL21 strain. E. coli were grown to log-phase and infected with T7 phage from a frozen stock (multiplicity of infection ~0.1) and incubated with shaking at 32 °C until lysis (~90 min). The lysates were centrifuged (6000× g) and filtered (0.2 μm) to remove cell debris. The remaining kinases were produced in HEK-293 cells and subsequently tagged with DNA for qPCR detection. […] The liganded beads were blocked with excess biotin and washed with blocking buffer (SeaBlock (Pierce, ThermoFisher Scientific, Illkirch, France), 1% BSA, 0.05% Tween 20, 1 mM DTT) to remove unbound ligand and to reduce non-specific phage binding. […] An 11-point threefold serial dilution of each test compound was prepared in 100% DMSO at 100× final test concentration which and subsequently diluted to 1× in the assay. All reactions were performed in polystyrene 96-well plates in a final volume of 0.135 mL. […] The kinase concentration in the eluates was measured by qPCR.

AMPK-alpha2 = target: T2, AMPK-alpha2 (Homo sapiens, UniProt P54646)
T2 construct: purchased DiscoverX (KINOMEscan)
Protocol: as §1

FGFR3 = target: T3, FGFR3 (Homo sapiens, UniProt P22607)
T3 construct: purchased DiscoverX (KINOMEscan)
Protocol: as §1

CDKL5 = target: T4, CDKL5 (Homo sapiens, UniProt O76039)
T4 construct: purchased DiscoverX (KINOMEscan)
Protocol: as §1

DAPK1 = target: T5, DAPK1 (Homo sapiens, UniProt P53355)
T5 construct: purchased DiscoverX (KINOMEscan)
Protocol: as §1

CDK5 = target: T6, CDK5 (Homo sapiens, UniProt Q00535)
T6 construct: purchased DiscoverX (KINOMEscan)
T6 sequence (Q00535 whole entry): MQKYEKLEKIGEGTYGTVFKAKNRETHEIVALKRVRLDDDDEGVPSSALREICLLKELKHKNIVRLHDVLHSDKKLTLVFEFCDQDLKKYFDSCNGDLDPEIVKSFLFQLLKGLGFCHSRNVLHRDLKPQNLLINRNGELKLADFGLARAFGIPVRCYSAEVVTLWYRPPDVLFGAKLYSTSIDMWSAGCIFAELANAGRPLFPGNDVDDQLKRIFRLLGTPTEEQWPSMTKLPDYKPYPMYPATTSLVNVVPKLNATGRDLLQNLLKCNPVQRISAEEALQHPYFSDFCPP
Protocol: as §1

CAMKK1 = target: T7, CAMKK1 (Homo sapiens, UniProt Q8N5S9)
T7 construct: purchased DiscoverX (KINOMEscan)
Protocol: as §1

LZK = target: T8, LZK (Homo sapiens, UniProt O43283)
T8 construct: purchased DiscoverX (KINOMEscan)
Protocol: as §1

IGF1R = target: T9, IGF1R (Homo sapiens, UniProt P08069)
T9 construct: purchased DiscoverX (KINOMEscan)
Protocol: as §1

TSSK1B = target: T10, TSSK1B (Homo sapiens, UniProt Q9BXA7)
T10 construct: purchased DiscoverX (KINOMEscan)
Protocol: as §1

ALK = target: T11, ALK (Homo sapiens, UniProt Q9UM73)
T11 construct: purchased DiscoverX (KINOMEscan)
Protocol: as §1

MAP3K1 = target: T12, MAP3K1 (Homo sapiens, UniProt Q13233)
T12 construct: purchased DiscoverX (KINOMEscan)
Protocol: as §1

LATS1 = target: T13, LATS1 (Homo sapiens, UniProt O95835)
T13 construct: purchased DiscoverX (KINOMEscan)
Protocol: as §1

EGFR(L861Q) = target: T14, EGFR(L861Q) (Homo sapiens, UniProt P00533, L861Q)
T14 construct: purchased DiscoverX (KINOMEscan)
T14 sequence (P00533 25-1210 L861Q): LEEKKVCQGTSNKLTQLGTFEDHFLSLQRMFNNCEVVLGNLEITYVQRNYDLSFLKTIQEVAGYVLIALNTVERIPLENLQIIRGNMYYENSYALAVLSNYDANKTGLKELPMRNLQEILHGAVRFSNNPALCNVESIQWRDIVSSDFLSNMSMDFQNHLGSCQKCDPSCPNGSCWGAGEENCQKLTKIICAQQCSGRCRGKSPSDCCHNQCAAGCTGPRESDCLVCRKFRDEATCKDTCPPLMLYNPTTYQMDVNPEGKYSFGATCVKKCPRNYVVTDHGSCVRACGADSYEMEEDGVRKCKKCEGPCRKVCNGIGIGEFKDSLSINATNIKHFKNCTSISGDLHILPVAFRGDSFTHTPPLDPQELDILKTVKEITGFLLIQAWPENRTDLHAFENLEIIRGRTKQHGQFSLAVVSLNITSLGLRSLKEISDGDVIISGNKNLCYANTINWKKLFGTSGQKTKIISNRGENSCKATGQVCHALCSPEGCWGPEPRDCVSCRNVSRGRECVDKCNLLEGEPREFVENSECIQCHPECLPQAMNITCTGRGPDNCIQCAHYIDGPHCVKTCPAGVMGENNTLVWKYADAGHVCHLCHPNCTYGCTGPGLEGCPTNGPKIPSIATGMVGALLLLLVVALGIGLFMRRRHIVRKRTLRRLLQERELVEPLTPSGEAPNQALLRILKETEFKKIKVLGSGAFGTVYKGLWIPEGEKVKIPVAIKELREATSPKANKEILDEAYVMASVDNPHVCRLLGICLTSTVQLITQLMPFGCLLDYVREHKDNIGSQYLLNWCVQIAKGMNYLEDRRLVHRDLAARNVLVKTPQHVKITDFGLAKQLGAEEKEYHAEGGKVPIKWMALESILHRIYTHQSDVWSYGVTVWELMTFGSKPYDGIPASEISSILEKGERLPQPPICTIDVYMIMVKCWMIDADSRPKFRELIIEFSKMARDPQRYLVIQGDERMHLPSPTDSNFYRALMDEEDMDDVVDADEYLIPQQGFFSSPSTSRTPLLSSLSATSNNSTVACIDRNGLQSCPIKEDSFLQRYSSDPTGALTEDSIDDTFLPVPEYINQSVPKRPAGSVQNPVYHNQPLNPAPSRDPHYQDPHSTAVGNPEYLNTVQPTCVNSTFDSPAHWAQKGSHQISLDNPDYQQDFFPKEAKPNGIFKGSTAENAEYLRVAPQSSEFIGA
Protocol: as §1

DAPK3 = target: T15, DAPK3 (Homo sapiens, UniProt O43293)
T15 construct: purchased DiscoverX (KINOMEscan)
T15 sequence (O43293 whole entry): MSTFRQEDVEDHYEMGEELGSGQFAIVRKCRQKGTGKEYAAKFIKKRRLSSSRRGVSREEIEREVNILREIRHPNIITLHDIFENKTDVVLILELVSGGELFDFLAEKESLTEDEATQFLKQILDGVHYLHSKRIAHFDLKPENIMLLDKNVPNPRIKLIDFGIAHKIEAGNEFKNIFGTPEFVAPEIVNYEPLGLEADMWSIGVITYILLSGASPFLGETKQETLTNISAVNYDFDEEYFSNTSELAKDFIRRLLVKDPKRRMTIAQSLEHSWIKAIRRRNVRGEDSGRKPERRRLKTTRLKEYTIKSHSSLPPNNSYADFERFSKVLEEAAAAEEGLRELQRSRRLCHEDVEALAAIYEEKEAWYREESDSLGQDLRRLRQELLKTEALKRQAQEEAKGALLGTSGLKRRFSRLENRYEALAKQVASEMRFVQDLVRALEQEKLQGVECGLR
Protocol: as §1

TNK2 = target: T16, TNK2 (Homo sapiens, UniProt Q07912)
T16 construct: purchased DiscoverX (KINOMEscan)
Protocol: as §1

MLK3 = target: T17, MLK3 (Homo sapiens, UniProt Q16584)
T17 construct: purchased DiscoverX (KINOMEscan)
Protocol: as §1

YES = target: T18, YES (Homo sapiens, UniProt P07947)
T18 construct: purchased DiscoverX (KINOMEscan)
Protocol: as §1

STK33 = target: T19, STK33 (Homo sapiens, UniProt Q9BYT3)
T19 construct: purchased DiscoverX (KINOMEscan)
Protocol: as §1

FLT4 = target: T20, FLT4 (Homo sapiens, UniProt P35916)
T20 construct: purchased DiscoverX (KINOMEscan)
Protocol: as §1

[1] = target: T21, ABL1(H396P)-nonphosphorylated (Homo sapiens, UniProt P00519, H396P)
T21 construct: purchased DiscoverX (KINOMEscan)
Protocol: as §1

FGFR2 = target: T22, FGFR2 (Homo sapiens, UniProt P21802)
T22 construct: purchased DiscoverX (KINOMEscan)
Protocol: as §1

HIPK2 = target: T23, HIPK2 (Homo sapiens, UniProt Q9H2X6)
T23 construct: purchased DiscoverX (KINOMEscan)
Protocol: as §1

ERBB4 = target: T24, ERBB4 (Homo sapiens, UniProt Q15303)
T24 construct: purchased DiscoverX (KINOMEscan)
Protocol: as §1

CAMK2D = target: T25, CAMK2D (Homo sapiens, UniProt Q13557)
T25 construct: purchased DiscoverX (KINOMEscan)
T25 sequence (Q13557 whole entry): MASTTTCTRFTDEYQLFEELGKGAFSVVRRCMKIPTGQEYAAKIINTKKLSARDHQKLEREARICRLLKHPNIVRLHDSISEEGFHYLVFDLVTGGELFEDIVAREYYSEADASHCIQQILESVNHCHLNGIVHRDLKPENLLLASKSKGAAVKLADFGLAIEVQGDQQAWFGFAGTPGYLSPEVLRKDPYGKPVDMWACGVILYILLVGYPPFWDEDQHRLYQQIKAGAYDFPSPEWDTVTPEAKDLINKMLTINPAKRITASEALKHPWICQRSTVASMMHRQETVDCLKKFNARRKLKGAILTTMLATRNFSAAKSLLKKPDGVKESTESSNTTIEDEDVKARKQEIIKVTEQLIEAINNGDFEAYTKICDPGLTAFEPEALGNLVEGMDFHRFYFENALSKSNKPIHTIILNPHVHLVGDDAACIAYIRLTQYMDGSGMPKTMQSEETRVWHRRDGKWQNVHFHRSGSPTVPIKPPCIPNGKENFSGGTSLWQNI
Protocol: as §1

ULK1 = target: T26, ULK1 (Homo sapiens, UniProt O75385)
T26 construct: purchased DiscoverX (KINOMEscan)
Protocol: as §1

NEK3 = target: T27, NEK3 (Homo sapiens, UniProt P51956)
T27 construct: purchased DiscoverX (KINOMEscan)
Protocol: as §1

IRAK3 = target: T28, IRAK3 (Homo sapiens, UniProt Q9Y616)
T28 construct: purchased DiscoverX (KINOMEscan)
Protocol: as §1

JNK2 = target: T29, JNK2 (Homo sapiens, UniProt P45984)
T29 construct: purchased DiscoverX (KINOMEscan)
Protocol: as §1

INSR = target: T30, INSR (Homo sapiens, UniProt P06213)
T30 construct: purchased DiscoverX (KINOMEscan)
Protocol: as §1

CAMKK2 = target: T31, CAMKK2 (Homo sapiens, UniProt Q96RR4)
T31 construct: purchased DiscoverX (KINOMEscan)
T31 sequence (Q96RR4 whole entry): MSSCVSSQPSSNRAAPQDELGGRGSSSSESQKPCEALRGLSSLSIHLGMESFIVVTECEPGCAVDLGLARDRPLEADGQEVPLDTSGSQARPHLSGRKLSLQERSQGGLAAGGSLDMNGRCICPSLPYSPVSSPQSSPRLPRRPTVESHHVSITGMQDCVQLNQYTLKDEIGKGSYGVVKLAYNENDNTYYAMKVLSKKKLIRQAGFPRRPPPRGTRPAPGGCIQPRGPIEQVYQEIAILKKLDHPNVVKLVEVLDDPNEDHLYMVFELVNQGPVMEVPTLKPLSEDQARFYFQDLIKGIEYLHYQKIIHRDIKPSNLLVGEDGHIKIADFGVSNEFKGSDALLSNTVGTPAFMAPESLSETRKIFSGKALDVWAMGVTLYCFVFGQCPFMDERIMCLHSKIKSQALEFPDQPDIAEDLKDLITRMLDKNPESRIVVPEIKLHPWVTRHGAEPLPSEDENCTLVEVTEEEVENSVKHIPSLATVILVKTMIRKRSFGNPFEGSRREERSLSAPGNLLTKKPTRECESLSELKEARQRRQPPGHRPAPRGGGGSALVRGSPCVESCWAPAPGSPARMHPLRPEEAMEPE
Protocol: as §1

CDK11 = target: T32, CDK11 (Homo sapiens, UniProt Q9BWU1)
T32 construct: purchased DiscoverX (KINOMEscan)
Protocol: as §1

ADCK4 = target: T33, ADCK4 (Homo sapiens, UniProt Q96D53)
T33 construct: purchased DiscoverX (KINOMEscan)
Protocol: as §1

ULK2 = target: T34, ULK2 (Homo sapiens, UniProt Q8IYT8)
T34 construct: purchased DiscoverX (KINOMEscan)
Protocol: as §1

TBK1 = target: T35, TBK1 (Homo sapiens, UniProt Q9UHD2)
T35 construct: purchased DiscoverX (KINOMEscan)
T35 sequence (Q9UHD2 whole entry): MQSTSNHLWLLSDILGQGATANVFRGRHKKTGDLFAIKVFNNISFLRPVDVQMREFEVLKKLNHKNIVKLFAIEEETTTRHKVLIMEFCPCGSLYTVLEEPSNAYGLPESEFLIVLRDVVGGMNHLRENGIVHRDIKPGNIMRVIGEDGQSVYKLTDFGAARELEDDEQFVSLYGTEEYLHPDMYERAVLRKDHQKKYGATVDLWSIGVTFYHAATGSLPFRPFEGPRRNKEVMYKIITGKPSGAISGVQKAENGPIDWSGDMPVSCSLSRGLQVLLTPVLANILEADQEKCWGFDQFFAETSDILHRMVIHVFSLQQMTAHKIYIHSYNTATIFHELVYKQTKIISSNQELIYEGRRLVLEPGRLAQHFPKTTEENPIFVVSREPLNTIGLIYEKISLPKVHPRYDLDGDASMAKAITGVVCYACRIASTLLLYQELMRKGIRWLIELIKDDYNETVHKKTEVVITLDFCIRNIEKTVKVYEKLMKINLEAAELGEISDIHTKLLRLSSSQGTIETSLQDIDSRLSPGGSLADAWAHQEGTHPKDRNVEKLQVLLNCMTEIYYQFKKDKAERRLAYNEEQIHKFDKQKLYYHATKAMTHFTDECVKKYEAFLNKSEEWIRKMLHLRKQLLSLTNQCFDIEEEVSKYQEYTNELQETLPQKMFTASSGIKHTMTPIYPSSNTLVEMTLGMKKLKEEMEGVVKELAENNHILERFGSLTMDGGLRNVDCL
Protocol: as §1

SGK3 = target: T36, SGK3 (Homo sapiens, UniProt Q96BR1)
T36 construct: purchased DiscoverX (KINOMEscan)
Protocol: as §1

MAP3K3 = target: T37, MAP3K3 (Homo sapiens, UniProt Q99759)
T37 construct: purchased DiscoverX (KINOMEscan)
T37 sequence (Q99759 whole entry): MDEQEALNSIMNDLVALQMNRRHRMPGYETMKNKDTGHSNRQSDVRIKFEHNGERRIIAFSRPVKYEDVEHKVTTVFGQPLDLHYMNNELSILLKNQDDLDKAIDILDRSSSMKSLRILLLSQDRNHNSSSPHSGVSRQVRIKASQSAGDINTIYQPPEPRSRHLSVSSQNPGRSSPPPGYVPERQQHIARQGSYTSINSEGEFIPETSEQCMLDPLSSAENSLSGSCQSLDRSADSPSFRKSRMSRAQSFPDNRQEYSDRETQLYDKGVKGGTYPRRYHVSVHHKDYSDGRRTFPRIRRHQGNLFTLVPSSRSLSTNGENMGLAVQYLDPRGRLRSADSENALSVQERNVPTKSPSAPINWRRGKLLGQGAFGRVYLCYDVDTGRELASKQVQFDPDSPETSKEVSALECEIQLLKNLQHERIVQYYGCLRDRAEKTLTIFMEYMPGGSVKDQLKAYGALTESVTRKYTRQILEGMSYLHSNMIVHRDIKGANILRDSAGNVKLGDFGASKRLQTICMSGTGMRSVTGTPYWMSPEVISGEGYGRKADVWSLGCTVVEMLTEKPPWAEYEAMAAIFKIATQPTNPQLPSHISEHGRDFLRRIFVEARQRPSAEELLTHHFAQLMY
Protocol: as §1

[2] = target: T38, ABL1(F317I)-nonphosphorylated (Homo sapiens, UniProt P00519, F317I)
T38 construct: purchased DiscoverX (KINOMEscan)
Protocol: as §1

T1 sequence (O60285 whole entry): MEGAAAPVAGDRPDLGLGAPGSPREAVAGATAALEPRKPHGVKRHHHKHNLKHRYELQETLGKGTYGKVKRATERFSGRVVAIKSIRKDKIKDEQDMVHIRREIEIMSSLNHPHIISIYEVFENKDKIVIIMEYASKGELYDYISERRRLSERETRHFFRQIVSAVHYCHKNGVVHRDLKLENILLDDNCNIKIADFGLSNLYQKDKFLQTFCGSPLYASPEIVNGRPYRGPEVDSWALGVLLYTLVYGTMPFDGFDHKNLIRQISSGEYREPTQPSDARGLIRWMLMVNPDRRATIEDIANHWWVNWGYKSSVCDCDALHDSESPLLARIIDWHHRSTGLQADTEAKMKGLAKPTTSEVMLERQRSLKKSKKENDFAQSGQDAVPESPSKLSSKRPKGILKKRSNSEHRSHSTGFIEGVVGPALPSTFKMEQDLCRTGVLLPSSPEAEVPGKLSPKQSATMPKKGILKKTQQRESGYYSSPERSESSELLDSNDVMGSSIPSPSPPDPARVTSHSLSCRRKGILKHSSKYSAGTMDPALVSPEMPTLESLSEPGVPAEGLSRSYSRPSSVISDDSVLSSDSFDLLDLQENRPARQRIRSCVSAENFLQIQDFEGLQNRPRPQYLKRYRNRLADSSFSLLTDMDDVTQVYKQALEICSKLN

## COc1cc(/C=C2\N=C(N)NC2=O)ccc1O [Polyandrocarpamine A]
ARK5
  Score: 71
AMPK-alpha2
  Score: 87
FGFR3
  Score: 100
CDKL5
  Score: 100
DAPK1
  Score: 79
CDK5
  Score: 100
CAMKK1
  Score: 100
LZK
  Score: 100
IGF1R
  Score: 100
TSSK1B
  Score: 100
ALK
  Score: 100
MAP3K1
  Score: 100
LATS1
  Score: 100
EGFR(L861Q)
  Score: 100
DAPK3
  Score: 50
TNK2
  Score: 100
MLK3
  Score: 100
YES
  Score: 100
STK33
  Score: 100
FLT4
  Score: 100
[1]
  Score: 95
FGFR2
  Score: 100
HIPK2
  Score: 50
ERBB4
  Score: 99
CAMK2D
  Score: 100
ULK1
  Score: 94
NEK3
  Score: 100
IRAK3
  Score: 98
JNK2
  Score: 100
INSR
  Score: 90
CAMKK2
  Score: 94
CDK11
  Score: 100
ADCK4
  Score: 98
ULK2
  Score: 100
TBK1
  Score: 100
SGK3
  Score: 100
MAP3K3
  Score: 100
[2]
  Score: 92
